Assay results as given in ChEMBL document CHEMBL3244112, “Dipeptides of O-methyl-L-threonine as potential antimalarials” (J Med Chem, 1979).
The source made the active and inactive calls. The rule behind the calls is not given here. Peptide text beside a SMILES is read from it.

Legend:
Plasmodium berghei [1] = experiment: Antimalarial activity against Plasmodium berghei infected in mouse assessed as increase of survival time of host at 160 to 640 mg/kg; format: functional, organism-based
Plasmodium berghei [2] = experiment: Antimalarial activity against Plasmodium berghei infected in mouse assessed as increase of survival time of host at 640 mg/kg; format: functional, organism-based; parameters: dose 640 mg/kg
Mus musculus = experiment: Toxicity in Plasmodium berghei infected mouse at <640 mg/kg; format: organism-based; details: in vivo
Plasmodium berghei [3] = experiment: Antimalarial activity against Plasmodium berghei infected in mouse assessed as increase of survival time of host; format: functional, organism-based

| SMILES | Activity (Plasmodium berghei [1]) | Activity (Plasmodium berghei [2]) | Activity (Mus musculus) | Activity (Plasmodium berghei [3]) |
| --- | --- | --- | --- | --- |
| CO[C@H](C)[C@H](N)C(=O)O | Active |  |  |  |
| CO[C@H](C)[C@H](NC(=O)[C@@H](N)CC(C)C)C(=O)O (H-Leu-Thr(Me)-OH) |  | inactive | Non-toxic |  |
| CO[C@H](C)[C@H](N)C(=O)N[C@@H](CC(C)C)C(=O)O (H-Thr(Me)-Leu-OH) |  | inactive | Non-toxic |  |
| CO[C@H](C)[C@H](N)C(=O)N[C@H](C(=O)O)[C@@H](C)OC (H-Thr(Me)-Thr(Me)-OH) |  | Active |  | Active |
| CC(C)C[C@H](N)C(=O)O [LEUCINE] |  | inactive | Non-toxic |  |
